This is an account of results in paper PMC13286573, “Exploration of precision coregulator TR-FRET identifies diverse signatures for LXR ligands relevant to discovery of nonlipogenic ABCA1 inducers” (eLife, 2026).

Data set [1] has as its target T1, LXRα (Homo sapiens, UniProt Q13133).
T1 sequence (Q13133 209-447 limits assumed): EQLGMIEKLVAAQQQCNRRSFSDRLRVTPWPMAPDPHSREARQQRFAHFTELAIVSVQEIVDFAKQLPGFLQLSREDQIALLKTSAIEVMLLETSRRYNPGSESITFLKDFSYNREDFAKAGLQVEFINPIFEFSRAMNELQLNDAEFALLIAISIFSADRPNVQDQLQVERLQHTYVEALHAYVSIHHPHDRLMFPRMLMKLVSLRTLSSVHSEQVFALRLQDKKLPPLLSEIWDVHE
Kind of data set: SMRT2 corepressor binding to LXRα, CRT. The conditions noted are these: ligand 1 µM, interpolated from concentration-response, normalized; heat map Figure 9A; read-out: SMRT2α, relative % activity at 1 μM. It counts as biochemical. On the set-up: The CRT selectivity assay incorporates GST-tagged LXR-LBD; purchased Thermo Fisher Scientific PV4657.

Data set [2] deals with T1, LXRα. Kind of data set: NCOR2 corepressor binding to LXRα, CRT. It counts as biochemical. Set-up: The CRT selectivity assay incorporates GST-tagged LXR-LBD; purchased Thermo Fisher Scientific PV4657. Conditions: for activity at 1 µM: ligand 1 µM, interpolated from concentration-response, normalized, heat map Figure 9A, read-out: NCOR2α, relative % activity at 1 μM.
Data set [3] concerns the target T2, LXRβ (Homo sapiens, UniProt P55055).
T2 sequence (P55055 222-460 limits assumed): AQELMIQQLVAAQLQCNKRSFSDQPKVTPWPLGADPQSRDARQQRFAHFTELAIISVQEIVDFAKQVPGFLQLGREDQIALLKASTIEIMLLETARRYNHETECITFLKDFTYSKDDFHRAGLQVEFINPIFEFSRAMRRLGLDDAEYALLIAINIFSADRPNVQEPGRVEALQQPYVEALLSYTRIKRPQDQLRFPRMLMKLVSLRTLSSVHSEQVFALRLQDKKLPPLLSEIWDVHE
Kind of data set: SMRT2 corepressor binding to LXRβ, CRT. It is filed as biochemical. On the set-up: The CRT selectivity assay incorporates GST-tagged LXR-LBD; purchased Thermo Fisher Scientific PV4660. Conditions: ligand 1 µM, interpolated from concentration-response, normalized; heat map Figure 9A; read-out: SMRT2β, relative % activity at 1 μM.

Data set [4] deals with T2, LXRβ. Kind of data set: NCOR2 corepressor binding to LXRβ, CRT. Conditions: for activity at 1 µM: ligand 1 µM, interpolated from concentration-response, normalized, heat map Figure 9A, read-out: NCOR2β, relative % activity at 1 μM. On the set-up: The CRT selectivity assay incorporates GST-tagged LXR-LBD; purchased Thermo Fisher Scientific PV4660. It counts as biochemical.

The test system of the next data set is cynomolgus monkeys. Set-up: method as in Groot et al., 2005. Conditions: ref Groot et al., 2005; cited from earlier work.
The subject of data set [5] is LXR. As to the kind of experiment: Corepressor (NCOR2, SMRT2) binding to LXR, CRT, statements across isoforms. It is filed as biochemical. Conditions: monoplex CRT, absence of coactivator.
The test system of a further data set is Hamsters. Set-up: method as in Groot et al., 2005. Conditions: ref Groot et al., 2005; cited from earlier work.
In data set [6] the test system is LXR. Kind of data set: Categorization of ligands by CRT/pCRT signature. It counts as biochemical. The conditions noted are these: response at 1 µM ligand compared with theoretical signatures. The source says:
With the knowledge that, in pCRT, corepressors bind to the apo-receptor; whereas coactivator binding requires a ligand-induced conformational change, we can categorize all ligands using their CRT profiles. Ligands induce three LXR conformational ensembles with CoR (destabilizing D, stabilizing S, neutral N) and only two conformations with CoA (stabilizing S, neutral N) (Figure 9 (Table 1)). In categorizing ligands based upon these CRT characteristics, labels are needed.
The category for each ligand is not always identical for LXRα vs. LXRβ. Similarly, the phenotype associated with each classification is isoform dependent. Recruitment of CoA to LXRβ by FA, WA, and PA will activate transcription; whereas, lack of recruitment by SA, HA, and RA will antagonize transcription (Figure 9 (Table 1)). Stabilization of CoA and/or destabilization of CoR bound to LXRα is a derepression mechanism leading to activation/transcription for FA, WA, and RA; whereas partial activation is expected for PA.
To determine which LXR ligands fit with these theoretical CRT signatures, concentration-response curves were interpolated to measure normalized response at 1 µM ligand concentration and plotted as a heat map (Figure 9A).

In data set [7] the target is T2, LXRβ. Kind of data set: SRC-1 coactivator recruitment to LXRβ, coregulator TR-FRET (CRT). It is filed as biochemical. The conditions noted are these: for LXR isoform selectivity from SRC-1 CRT: LXRβ versus LXRα. On the set-up: The CRT selectivity assay incorporates GST-tagged LXR-LBD; purchased Thermo Fisher Scientific PV4660.
The test system of data set [8] is sterol response element (SRE). As to the kind of experiment: SRE-luc reporter assay in HepG2 cells. It is filed as cell-based, human. The text has this:
Our phenotypic high-throughput screen (HTS) approach to identify nonlipogenic ABCA1 Inducers (NLAI) originally used counterscreening with a SREBP1c-luciferase reporter (linked to the SREBF1 gene promoter) in human hepatocarcinoma HepG2 cells ([Ben Aissa et al., 2021]). Unwanted lipogenesis is mediated by LXR agonists via direct transcriptional activation and indirectly by the effects of SREBP1c ([Schultz et al., 2000]; [Brown and Goldstein, 1997]). SREBP1c enhances transcription of genes required for synthesis of fatty acids and TG and as the dominant isoform in liver is associated most closely with lipogenesis and TG elevation ([Brown and Goldstein, 1997]). […] Binding of SREBP1c to the sterol response element (SRE) induces transcription of lipogenic genes associated with elevated TG. To better model the lipogenic axis in hepatocytes, we use HepG2 cells stably transfected with a nanoluciferase reporter downstream of a SRE promoter (SRE-luc), activation of which requires SREBP1c maturation.
HepG2 cells were cotransfected with SRE (LDLR)-NlucP SuperPiggyBac Transposon and a separate Transposase plasmid (System Biosciences). Cells were expanded for multiple passages followed by selection with puromycin (1 μg/ml). Stable cells constitutively express GFP allowed for FACS enrichment and/or cell cloning. Initially, stable pools were compared to low expressing and high expressing enriched pools. The optimal pool was selected based on assay performance (Z’) and was grown and maintained as above, with the addition of 1.0 μg/mL of puromycin biweekly.
Cells were split into flasks containing CS medium (EMEM supplemented with 10% charcoal stripped FBS (Gibco A52567-01)) and 1% P/S and grown at 37 °C /5% CO2 for 48 hr before plating. Cells were plated in 384-well, white clear tissue culture plates (Greiner 781098) and allowed to grow at 37 °C /5% CO2 for 24 hr before medium was aspirated and compound dilutions prepared in CS medium were added. Following a 24 hr incubation, the medium was aspirated, and cells were lysed/luminescence quantified using the Nano-Glo Luciferase Assay System (Promega N1130).

The test system of another data set is ABCA1. Kind of data set: ABCA1-luc reporter assay in CCF-STTG1 astrocytoma cells. The conditions noted are these: for ABCA1 induction response/phenotype in CCF cells: normalized to T0. It is filed as cell-based, human. The source says:
Astrocytoma CCF-STTG1 cells, stably transfected with an ABCA1-promoter linked to a luciferase response element, provide a model for ABCA1 induction in astrocytes ([Ben Aissa et al., 2021]). […] Apparent inverse agonist activity in cell-based assays can result from ‘true’ inverse agonist recruitment of corepressors or from antagonist activity towards endogenous sterol LXR agonists. Although we use serum-stripped media, antagonism of endogenous LXR agonists cannot be ruled out.
Low passage CCF-STTG1 cells (20,000 cells/well) were seeded in 96-well plates in media containing charcoal-stripped FBS and incubated at 37 °C and 5% CO2 for 24 hr prior to a 24 hr treatment. All compounds were dissolved in DMSO, and final DMSO concentrations never exceeded 1%. After a 24 hr incubation period, add a volume of ONE-GLOEX Reagent that is equal to the volume of culture medium in each well and incubate for 3–5 min on the shaker. The luminescent activity of compounds ([…], 10-fold dilution) was examined using the ONE-GLOEX assay (Promega). […] The assays were performed in duplicates for each concentration, and the EC50 values were determined from non-linear regression analysis of the dose-response curve generated in GraphPad Prism 9.

A further data set deals with HepG2 cells. As to the kind of experiment: Cell viability in HepG2 cells under SRE-luc conditions. It counts as cell-based, human. Conditions: conditions of SRE-luc measurements. The source says: Figure 5. Lipogenic response of HepG2 cells to treatment with liver X receptor (LXR) ligands. […] See Figure 3—figure supplement 1 for biological replicates. […] See Figure 5—figure supplement 1 for full concentration-response curves. Figure 5—figure supplement 1. Response of HepG2 cells to treatment with liver X receptor (LXR) ligands. (A–B) Lipogenic response of HepG2 cells to treatment with liver X receptor (LXR) ligands showing full concentration-response curves for biphenyl compounds shown in Figure 5E–F. (C) Cell viability in HepG2 cells under identical conditions to those used to obtain sterol response element (SRE)-luc data. [drawing 5]

Data set [9] addresses T1, LXRα. Kind of data set: SRC-1 coactivator recruitment to LXRα, coregulator TR-FRET (CRT). It counts as biochemical. Set-up: The CRT selectivity assay incorporates GST-tagged LXR-LBD; purchased Thermo Fisher Scientific PV4657. The conditions noted are these: maximal response relative to T0 (100%).

“Also recorded” adds a separate entry of the source.

For `C[C@H](CCOc1cccc(CC(=O)O)c1)N(Cc1cccc(C(F)(F)F)c1Cl)CC(c1ccccc1)c1ccccc1` [RGX-104], the activity at 1 µM was 93.4% at LXRα [1], 99.8% on LXRα [2], 82% on LXRβ [3] and 103% on LXRβ [4]. Besides, the “Effect on NCOR2 binding to LXRα” value at LXRα [2] (monoplex CRT, absence of SRC1) is given as “displacement of NCOR2 from both LXR isoforms”. Besides, the “Effect on NCOR2 binding to LXRβ” value on LXRβ [4] (monoplex CRT, absence of SRC1) was “displacement of NCOR2 from both LXR isoforms”. Further, the “Plasma LDL, HDL and TG” value in the data set on cynomolgus monkeys was “robust time-dependent increase in TG and LDL”. Further, in the data set on LXR [5], the “Corepressor (NCOR2, SMRT2) displacement or stabilization, across LXR isoforms” value (“Corepressor” below) is on record as “strong agonist responses”. Besides, the “Liver TG” value in the data set on Hamsters is recorded as “significantly increased liver TG”. In addition, the “Plasma TG, LDL-C and VLDL-C” value in the data set with Hamsters is “dose-dependent increase”.

Consider `COc1ccc(NC2=C(c3ccccc3)C(=O)N(Cc3ccccc3)C2=O)cc1` [GSK3987], for which the activity at 1 µM on LXRα [1] was found to be 69.9%; on LXRα [2], 97.7%; at LXRβ [3], 84%; at LXRβ [4] it was 97.4%. Further, the “Corepressor” value in the data set on LXR [5] is reported as “strong agonist responses”. In the data set on LXR [6], the CRT/pCRT signature category result is “FA (full agonist (FA))”. Also, the “LXR isoform selectivity from SRC-1 CRT” value on LXRβ [7] is “weakly selective for LXRβ”.

For the compound `CCOC(=O)Cn1nc(C(F)(F)F)cc1-c1ccc(-c2cccc(S(C)(=O)=O)c2)cc1` [ALX101], the activity at 1 µM was found to be 87.3% on LXRα [1], 100% at LXRα [2], 91.1% on LXRβ [3] and 105% at LXRβ [4]. The “SRE activation response/phenotype in HepG2” value in data set [8] is given as “partial agonist of SRE activation”. The “Corepressor” value with LXR [5] is “less effective or ineffective in displacement of corepressors from LXRα”. The “ABCA1 induction response/phenotype in CCF cells” value in the data set on ABCA1 was “full agonist towards ABCA1 induction”.

Turning to `Cc1cc(C)c(S(=O)(=O)N(Cc2ccc(-c3cccc(S(C)(=O)=O)c3)cc2)Cc2ccccc2F)c(C)c1` [BE1218], the activity at 1 µM at LXRα [1] was 91.8%; on LXRα [2], 100%; at LXRβ [3], 81.6%; at LXRβ [4], 105%. Moreover, in data set [8], the “SRE activation response/phenotype in HepG2” value was “partial agonist phenotype in both cell-based assays”. Moreover, the “Corepressor” value with LXR [5] is “ineffective in corepressor displacement from LXRα”. Further, the “Selectivity for ABCA1 induction versus SRE activation (potency correlation outliers)” value in the data set with ABCA1 (CCF ABCA1-luc versus HepG2 SRE-luc) is on record as “selectivity for ABCA1 induction”. In addition, the “ABCA1 induction response/phenotype in CCF cells” value in the data set with ABCA1 is listed as “partial agonist phenotype in both cell-based assays; also recorded: partial agonist response”. Moreover, the “LXR isoform selectivity from SRC-1 CRT” value at LXRβ [7] is “most selective LXRβ agonists”.

Regarding `CC(C)C(O)CC[C@@H](C)[C@H]1CC[C@H]2[C@@H]3CC=C4C[C@@H](O)CC[C@]4(C)[C@H]3CC[C@]12C` (stereo partly shown) [24HC, 24-hydroxycholesterol], in the data set on HepG2 cells, the HepG2 cell viability/cytotoxicity result was “cytotoxic at higher concentrations”. Further, on LXRβ [7], the “LXR isoform selectivity from SRC-1 CRT” value was “nonselective”. Moreover, at LXRβ [7] (maximal response relative to T0 (100%)), the “Efficacy profile for SRC-1 recruitment to LXRβ” value is “partial agonist”. Further, the “Efficacy profile for SRC-1 recruitment to LXRα” value at LXRα [9] was “partial agonist”.
